Reference: patent EP4603105A1, “PHARMACEUTICAL COMPOSITION CONTAINING CYCLIC COMPOUND HAVING SELECTIVE KRAS INHIBITORY EFFECT AGAINST HRAS AND NRAS” (CHUGAI SEIYAKU KABUSHIKI KAISHA, priority 2022, dated 2024)

Tests used:
[1] = biological target: GDP-bound KRAS wild-type protein (Homo sapiens, UniProt P01116); experiment: Binding to KRAS by surface plasmon resonance (SPR), dissociation constant KD; details: Single Cycle Kinetics
In short: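 Measured at 30°C: SPR with GDP-loaded, E. coli-expressed biotin-Avi RAS captured (~100–300 RU), ascending 75 s compound injections, HBS pH 7.4 with GDP, MgCl2, 4% DMSO. KD from 1:1 fit.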

[2] = biological target: GDP-bound NRAS wild-type protein (Homo sapiens, UniProt P01111); experiment: Binding to NRAS by surface plasmon resonance (SPR), KD and KD ratio to KRAS; details: ratio of KD for GDP-bound NRAS wild-type protein to KD for KRAS
Sequence of GDP-bound NRAS wild-type protein (P01111 whole entry): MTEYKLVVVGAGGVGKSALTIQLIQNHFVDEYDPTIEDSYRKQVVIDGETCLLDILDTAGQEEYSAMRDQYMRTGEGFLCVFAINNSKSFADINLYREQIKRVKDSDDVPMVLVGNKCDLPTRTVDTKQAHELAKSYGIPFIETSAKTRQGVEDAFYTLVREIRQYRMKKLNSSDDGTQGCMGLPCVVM
In short: (§1)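 GDP-bound biotin-Avi RAS captured at ~100–300 RU, 30°C, pH 7.4 HBS containing 10 µM GDP, 10 mM MgCl2, 1 mM DTT, 0.01% Tween 20 and 4% DMSO. KD by 1:1 fitting.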

HRAS wild-type protein = HRAS wild-type protein (Homo sapiens, UniProt P01112); experiment: Binding to HRAS by surface plasmon resonance (SPR), KD and KD ratio to KRAS; details: ratio of KD for HRAS wild-type protein to KD for KRAS
Sequence of HRAS wild-type protein (P01112 whole entry): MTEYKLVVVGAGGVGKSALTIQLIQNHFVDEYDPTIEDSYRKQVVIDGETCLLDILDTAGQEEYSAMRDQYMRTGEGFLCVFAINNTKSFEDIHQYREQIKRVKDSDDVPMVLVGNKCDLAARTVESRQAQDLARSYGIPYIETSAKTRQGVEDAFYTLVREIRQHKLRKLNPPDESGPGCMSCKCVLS
In short: as §1

[3] = system: human lung cancer strain NCI-H441; experiment: NCI-H441 cell proliferation inhibitory activity (CellTiter-Glo, 4 days); type: cell-based; details: NCI-H441 cells, 4 days, read-out: NCl-H441 IC50
In short: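 Readout: […] after the ATP-based reagent. Compound: serial dilutions in dimethyl sulfoxide.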

Sequence of GDP-bound KRAS wild-type protein (P01116 1-188 isoform P01116-2): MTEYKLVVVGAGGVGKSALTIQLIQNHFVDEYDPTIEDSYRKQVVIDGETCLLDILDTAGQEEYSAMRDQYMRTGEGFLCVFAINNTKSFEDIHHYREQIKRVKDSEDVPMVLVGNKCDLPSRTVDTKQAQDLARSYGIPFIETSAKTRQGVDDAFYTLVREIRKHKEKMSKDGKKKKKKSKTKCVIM

Row | SMILES | Kd [1] | NRAS /KRAS [2] | HRAS /KRAS (HRAS wild-type protein) | IC50 [3]
1 | CCC[C@H]1C(=O)N[C@@H]([C@@H](C)CC)C(=O)N(C)CC(=O)N(C)[C@H]2C/C=C\CCN(C2=O)[C@@H](Cc2ccc(C(F)(F)F)cc2)C(=O)N(C)CC(=O)N[C@@H](CCc2ccc(C(F)(F)F)c(OC)c2)C(=O)N2CC3(CC3)C[C@H]2C(=O)NC2(CCC2)C(=O)N(C)[C@@H]([C@@H](C)CC)C(=O)N(C)[C@H](C(=O)N(C)C)CC(=O)N1C [PP3410] | 0.24 nM | AA (a compound having 20 or more is denoted as AA) | A (a compound having 10 or more and less than 20 is denoted as A) | 15.6 nM
2 | CCCO[C@@H]1C[C@H]2C(=O)NC3(CC(C)(C)C3)C(=O)N(C)[C@@H](C3CCCC3)C(=O)N(C)[C@H](C(=O)N(C)CC)CC(=O)N(C)[C@@H](COCC)C(=O)N[C@@H]([C@@H](C)CC)C(=O)N(C3CC3)CC(=O)N(C)[C@H]3C/C=C\CCN(C3=O)[C@@H](Cc3ccc(C(F)(F)F)cc3)C(=O)N(C)CC(=O)N[C@@H](CCc3ccc(C(F)(F)F)c(OC)c3)C(=O)N2C1 [PP3411] | 0.72 nM | A (a compound having 10 or more and less than 20 is denoted as A) | A (a compound having 10 or more and less than 20 is denoted as A) | 25.8 nM
3 | CCC[C@H]1C(=O)N[C@@H]([C@@H](C)CC)C(=O)N(C)CC(=O)N(C)[C@H]2C/C=C\CCN(C2=O)[C@@H](Cc2ccc(C(F)(F)F)cc2)C(=O)N(C)CC(=O)N[C@@H](CCc2ccc(C(F)(F)F)c(OC)c2)C(=O)N2CC3(CC3)C[C@H]2C(=O)NC2(CCC2)C(=O)N(C)[C@@H](CC(C)(C)C)C(=O)N(C)[C@H](C(=O)N(C)C)CC(=O)N1C [PP3412] | 0.037 nM | A (a compound having 10 or more and less than 20 is denoted as A) | B (a compound having 3 or more and less than 10 is denoted as B) | 4.3 nM
4 | CCCO[C@@H]1C[C@H]2C(=O)NC3(CC(C)(C)C3)C(=O)N(C)[C@@H](C3CCCC3)C(=O)N(C)[C@H](C(=O)N(C)CC)CC(=O)N(C)[C@@H](COCC)C(=O)N[C@@H]([C@@H](C)CC)C(=O)N3CCC[C@H]3C(=O)N(C)[C@H]3C/C=C\CCN(C3=O)[C@@H](Cc3ccc(C(F)(F)F)cc3)C(=O)N(C)CC(=O)N[C@@H](CCc3ccc(C(F)(F)F)c(OC)c3)C(=O)N2C1 [PP3413] | 0.73 nM | AA (a compound having 20 or more is denoted as AA) | A (a compound having 10 or more and less than 20 is denoted as A) | 23.8 nM
5 | CCCO[C@@H]1C[C@H]2C(=O)NC3(CC(C)(C)C3)C(=O)N(C)[C@@H](C3CCCC3)C(=O)N(C)[C@H](C(=O)N(C)CC)CC(=O)N(C)[C@@H](COCC)C(=O)N[C@@H]([C@@H](C)CC)C(=O)N3C[C@@H](C)C[C@H]3C(=O)N(C)[C@H]3C/C=C\CCN(C3=O)[C@@H](Cc3ccc(C(F)(F)F)cc3)C(=O)N(C)CC(=O)N[C@@H](CCc3ccc(C(F)(F)F)c(OC)c3)C(=O)N2C1 [PP3415] | 2.5 nM | A (a compound having 10 or more and less than 20 is denoted as A) | A (a compound having 10 or more and less than 20 is denoted as A) | 47.5 nM
6 | CCC[C@H]1C(=O)N[C@@H]([C@@H](C)CC)C(=O)N(C)CC(=O)N(C)[C@H]2C/C=C\CCN(C2=O)[C@@H](Cc2ccc(C(F)(F)F)cc2)C(=O)N(C)CC(=O)N[C@@H](CCc2ccc(C(F)(F)F)c(Cl)c2)C(=O)N2CC3(CC3)C[C@H]2C(=O)NC2(CCC2)C(=O)N(C)[C@@H]([C@@H](C)CC)C(=O)N(C)[C@H](C(=O)N(C)C)CC(=O)N1C [PP3416] | 0.25 nM | AA (a compound having 20 or more is denoted as AA) | A (a compound having 10 or more and less than 20 is denoted as A) | 12.9 nM
7 | CCCO[C@@H]1C[C@H]2C(=O)NC3(CC(C)(C)C3)C(=O)N(C)[C@@H](C3CCCC3)C(=O)N(C)[C@H](C(=O)N(C)CC)CC(=O)N(C)[C@@H](COCC)C(=O)N[C@@H]([C@@H](C)CC)C(=O)N3C[C@@H](F)C[C@H]3C(=O)N(C)[C@H]3C/C=C\CCN(C3=O)[C@@H](Cc3ccc(C(F)(F)F)cc3)C(=O)N(C)CC(=O)N[C@@H](CCc3ccc(C(F)(F)F)c(OC)c3)C(=O)N2C1 [PP3417] | 0.36 nM | A (a compound having 10 or more and less than 20 is denoted as A) | A (a compound having 10 or more and less than 20 is denoted as A) | 13 nM
8 | CCC[C@H]1C(=O)N[C@@H]([C@@H](C)CC)C(=O)N(C)CC(=O)N(C)[C@H]2C/C=C\CCN(C2=O)[C@@H](Cc2ccc(C(F)(F)F)cc2)C(=O)N(C)CC(=O)N[C@@H](CCc2ccc(C(F)(F)F)c(Cl)c2)C(=O)N2CC3(CC3)C[C@H]2C(=O)NC2(CCC2)C(=O)N(C)[C@@H](CC(C)(C)C)C(=O)N(C)[C@H](C(=O)N(C)C)CC(=O)N1C [PP3418] | 0.041 nM | A (a compound having 10 or more and less than 20 is denoted as A) | B (a compound having 3 or more and less than 10 is denoted as B) | 5.4 nM
9 | CCCO[C@@H]1C[C@H]2C(=O)NC3(CC(C)(C)C3)C(=O)N(C)[C@@H](C3CCCC3)C(=O)N(C)[C@H](C(=O)N(C)CC)CC(=O)N(C)[C@@H](COCC)C(=O)N[C@@H]([C@@H](C)CC)C(=O)N(C)CC(=O)N(C)[C@H]3C/C=C\CCN(C3=O)[C@@H](Cc3ccc(C)cc3)C(=O)N(C)CC(=O)N[C@@H](CCc3cc(F)c(C(F)(F)F)c(F)c3)C(=O)N2C1 [PP3419] | 0.15 nM | A (a compound having 10 or more and less than 20 is denoted as A) | A (a compound having 10 or more and less than 20 is denoted as A) | 12.1 nM
10 | CCC[C@H]1C(=O)N[C@@H]([C@@H](C)CC)C(=O)N(C)CC(=O)N(C)[C@H]2C/C=C\CCN(C2=O)[C@@H](Cc2ccc(C)cc2)C(=O)N(C)CC(=O)N[C@@H](CCc2cc(F)c(C(F)(F)F)c(F)c2)C(=O)N2CC3(CC3)C[C@H]2C(=O)NC2(CCC2)C(=O)N(C)[C@@H](C(CC)CC)C(=O)N(C)[C@H](C(=O)N(C)C)CC(=O)N1C [PP3420] | 0.42 nM | AA (a compound having 20 or more is denoted as AA) | A (a compound having 10 or more and less than 20 is denoted as A) | 13.2 nM
11 | CCCO[C@@H]1C[C@H]2C(=O)NC3(CC(C)(C)C3)C(=O)N(C)[C@@H](C3CCCC3)C(=O)N(C)[C@H](C(=O)N(C)CC)CC(=O)N[C@@H](COCC)C(=O)N[C@@H]([C@@H](C)CC)C(=O)N(C3CC3)CC(=O)N(C)[C@H]3C/C=C\CCN(C3=O)[C@@H](Cc3ccc(C)cc3)C(=O)N(C)CC(=O)N[C@@H](CCc3cc(F)c(C(F)(F)F)c(F)c3)C(=O)N2C1 [PP3421] | 1.9 nM | A (a compound having 10 or more and less than 20 is denoted as A) | A (a compound having 10 or more and less than 20 is denoted as A) | 67 nM
12 | CCC[C@H]1C(=O)N[C@@H]([C@@H](C)CC)C(=O)N(C)CC(=O)N(C)[C@H]2C/C=C\CCN(C2=O)[C@@H](Cc2ccc(C)cc2)C(=O)N(C)CC(=O)N[C@@H](CCc2ccc(C(F)(F)F)c(OC)c2)C(=O)N2CC3(CC3)C[C@H]2C(=O)NC2(CCC2)C(=O)N(C)[C@@H](C(CC)CC)C(=O)N(C)[C@H](C(=O)N(C)C)CC(=O)N1C [PP3422] | 0.39 nM | AA (a compound having 20 or more is denoted as AA) | A (a compound having 10 or more and less than 20 is denoted as A) | 8.4 nM
13 | CCCO[C@@H]1C[C@H]2C(=O)NC3(CC(C)(C)C3)C(=O)N(C)[C@@H](C3CCCC3)C(=O)N(C)[C@H](C(=O)N(C)CC)CC(=O)N[C@@H](COCC)C(=O)N[C@@H]([C@@H](C)CC)C(=O)N3CCC[C@H]3C(=O)N(C)[C@H]3C/C=C\CCN(C3=O)[C@@H](Cc3ccc(C)cc3)C(=O)N(C)CC(=O)N[C@@H](CCc3cc(F)c(C(F)(F)F)c(F)c3)C(=O)N2C1 [PP3423] | 1.8 nM | A (a compound having 10 or more and less than 20 is denoted as A) | A (a compound having 10 or more and less than 20 is denoted as A) | 81.2 nM
14 | CCC[C@H]1C(=O)N[C@@H]([C@@H](C)CC)C(=O)N(C)CC(=O)N(C)[C@H]2C/C=C\CCN(C2=O)[C@@H](Cc2ccc(C)cc2)C(=O)N(C)CC(=O)N[C@@H](CCc2ccc(C(F)(F)F)c(Cl)c2)C(=O)N2CC3(CC3)C[C@H]2C(=O)NC2(CCC2)C(=O)N(C)[C@@H](C(CC)CC)C(=O)N(C)[C@H](C(=O)N(C)C)CC(=O)N1C [PP3424] | 0.48 nM | AA (a compound having 20 or more is denoted as AA) | A (a compound having 10 or more and less than 20 is denoted as A) | 27.2 nM
